Consider three compounds from patent publication US8680259B2, “Method and compositions for the identification of agents that have a potential effect against chronic inflammatory diseases” (Universität Leipzig, priority 2010, dated 2014).

One assay deals with primary CD14+ monocytes. The assay is described as follows: IL-1β production of monocytes stimulated with increased extracellular Ca2+ plus TLR ligand. In kind it is cell-based, human. As for the experimental part: FIGS. 3c and 3d show IL-1β release of primary CD14^+ monocytes in response to increasing extracellular calcium concentration alone (c) or to increased [Ca^2+] in combination with LPS (100 ng/ml) (d) after 16 h of stimulation. The bar underneath the x axis represents the physiological range of the extracellular ionized Ca^2+ concentration (1.2 mM).
The following TLR ligands (human TLR1-9 Agonist Kit, InvivoGen) were used at the following concentrations: TLR1/2 agonist—Pam3CSK4 (1 μg/ml), TLR2 agonist—heat-killed preparation of Listeria monocytogenes (10^8 cells/ml), TLR3 agonist—Poly(I:C) (10 μg/ml), TLR4 agonist—E. coli K12 LPS (100 ng/ml), TLR5 agonist—S. typhimurium flagellin (1 μg/ml), TLR6/2 agonist—FSL1 (1 μg/ml), TLR7 agonist—Imiquimod (1 μg/ml), TLR8 agonist—ssRNA40 (1 μg/ml) and TLR9 agonist—CpG ODN2006 (5 μM). […]
In all experiments shown in FIGS. 3 and 4, IL-1β concentrations were determined in the supernatant by ELISA.
Human and murine IL-1β were measured by commercially available enzyme-immunoassay following the manufacturer's protocol. […]
LPS (Escherichia coli 0111:B4 ultrapure, 100 ng/ml, Invivogen) was used at a concentration of 100 ng/ml. […] Final Ca^2+ ion concentrations in the media were measured after anaerobic sampling (sealed blood gas syringes were completely filled under an CO2 atmosphere, and were closed with caps to avoid loss of CO2) on an ABL 730 (Radiometer). […]

The next assay has as its target GPRC6A (Mus musculus, UniProt Q8K4Z6). The note with it: wild type mice; Aluminum Lactate 0.3 mg/100 ml with Carrageenan 1 g/100 ml vs Carrageenan alone; p<0.001.

GPRC6A, sequence (Q8K4Z6 21-928): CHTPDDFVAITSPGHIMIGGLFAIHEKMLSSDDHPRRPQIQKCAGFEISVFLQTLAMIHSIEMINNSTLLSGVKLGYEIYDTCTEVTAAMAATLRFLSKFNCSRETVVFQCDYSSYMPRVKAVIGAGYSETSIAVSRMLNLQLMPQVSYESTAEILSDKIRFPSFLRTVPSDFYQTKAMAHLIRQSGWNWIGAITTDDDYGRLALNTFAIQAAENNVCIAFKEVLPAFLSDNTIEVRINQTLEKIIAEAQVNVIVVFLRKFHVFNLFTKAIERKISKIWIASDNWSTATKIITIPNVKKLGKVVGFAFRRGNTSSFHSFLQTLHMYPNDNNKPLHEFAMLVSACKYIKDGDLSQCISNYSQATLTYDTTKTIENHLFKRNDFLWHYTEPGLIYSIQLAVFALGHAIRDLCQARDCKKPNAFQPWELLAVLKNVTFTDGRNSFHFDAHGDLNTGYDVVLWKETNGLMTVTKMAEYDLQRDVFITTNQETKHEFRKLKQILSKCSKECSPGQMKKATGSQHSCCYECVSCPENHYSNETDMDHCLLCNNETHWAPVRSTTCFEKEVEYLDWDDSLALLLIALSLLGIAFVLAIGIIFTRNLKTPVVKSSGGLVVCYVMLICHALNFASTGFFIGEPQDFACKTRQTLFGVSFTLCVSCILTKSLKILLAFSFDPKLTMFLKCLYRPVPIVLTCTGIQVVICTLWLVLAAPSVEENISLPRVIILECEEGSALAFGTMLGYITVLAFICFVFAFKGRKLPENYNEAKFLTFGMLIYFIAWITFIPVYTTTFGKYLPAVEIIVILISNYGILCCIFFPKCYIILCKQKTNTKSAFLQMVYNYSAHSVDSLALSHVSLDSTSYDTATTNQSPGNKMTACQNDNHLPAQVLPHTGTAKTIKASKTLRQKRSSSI

`[Ca+2].[Cl-].[Cl-]` [Ca^2+, CaCl2]: the “IL-1β production, factor of increase in comparison to endotoxin (LPS) alone” value with primary CD14+ monocytes (extracellular ionized Ca2+ in combination with LPS) is recorded as 20.

With Aluminum Lactate, on GPRC6A, the footpad swelling entry was “amplification of Carrageenan induced footpad swelling”.

With “Tenascin: endogenous TLR ligand, extracellular matrix glycoprotein; Tenascin-C from Millipore”, in the assay on primary CD14+ monocytes (endogenous TLR ligand in combination with increased extracellular Ca2+ concentrations), the IL-1β production entry is “comparable to the Ca^2+ plus LPS induced levels”.
